Measured values as given in PubChem BioAssay AID493110 (The Scripps Research Institute Molecular Screening Center, 2011).
Activity calls are given as the source filed them. The rule behind the calls is not given here.

Assays:
LYPLA1 = assay: IC50 of LYPLA1/LYPLA2 inhibition – biochemical, gel-based ABPP, dose response (AID 493110); conditions: competitive probe labeling
LYPLA2 = assay: as above; conditions: competitive probe labeling

SMILES | IC50 (LYPLA1) | IC50 (LYPLA2)
CCC1CCCCN1C(=O)n1ncc(C(O)(c2ccccc2)c2ccccc2)n1 (stereo not given) | > 10000 nM (inactive) | > 10000 nM (inactive)
CC(C)(O)c1cnn(C(=O)N2CCC(C(C)(C)C)CC2)n1 | 44 nM | 97 nM
O=C(N1CCOCC1)n1nnc2ccccc21 | 795 nM | inactive

Now from value to molecule:

IC50 (LYPLA1) | IC50 (LYPLA2) | SMILES
17 nM | 30 nM | CC(C)(C)C1CCN(C(=O)n2ncc(C(O)(c3ccccc3)c3ccccc3)n2)CC1
35 nM | 57 nM | CC(C)(C)C1CCN(C(=O)n2ncc(C3(O)CCCCC3)n2)CC1
